Experiments:
HL-60 = experiment: Antiproliferative activity against human HL-60 cells measured after 24 hrs by MTT assay; assay type: functional, cell-based; conditions: HL-60, 24 h
U-937 = experiment: Antiproliferative activity against human U-937 cells measured after 24 hrs by MTT assay; assay type: functional, cell-based; conditions: U-937, 24 h
MCF7 = experiment: Antiproliferative activity against human MCF7 cells measured after 24 hrs by MTT assay; assay type: functional, cell-based; conditions: MCF7, 24 h
MDA-MB-231 = experiment: Antiproliferative activity against human MDA-MB-231 cells measured after 24 hrs by MTT assay; assay type: functional, cell-based; conditions: MDA-MB-231, 24 h
[1] = target: T1, NAD-dependent protein deacetylase sirtuin-3, mitochondrial (Homo sapiens, UniProt Q9NTG7); experiment: Activation of recombinant human SIRT3 assessed as lysyl deacetylase activity using (Gln-Pro-Lys-Lys(Ac)) peptide substrate by fluorescent assay
T1 sequence (Q9NTG7 whole entry): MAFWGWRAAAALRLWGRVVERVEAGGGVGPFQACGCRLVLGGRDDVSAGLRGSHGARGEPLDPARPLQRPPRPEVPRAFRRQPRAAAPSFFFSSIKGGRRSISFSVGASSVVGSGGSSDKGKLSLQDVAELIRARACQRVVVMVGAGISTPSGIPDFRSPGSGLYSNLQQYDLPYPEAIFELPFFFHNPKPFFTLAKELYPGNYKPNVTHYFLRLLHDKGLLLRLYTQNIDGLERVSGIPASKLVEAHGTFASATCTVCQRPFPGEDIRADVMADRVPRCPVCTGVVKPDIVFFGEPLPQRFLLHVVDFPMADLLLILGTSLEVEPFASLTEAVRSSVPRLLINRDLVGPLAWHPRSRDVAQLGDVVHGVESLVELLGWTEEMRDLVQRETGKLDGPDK

[2] = Toxicity in BALB/c mouse xenografted with human MDA-MB-231 cells assessed as change in body weight at 25 mg/kg once daily for 1 week; assay type: organism-based; conditions: in vivo, 168 h, time 1 weeks
[3] = Toxicity in BALB/c mouse xenografted with human MDA-MB-231 cells assessed as change in body weight at 100 mg/kg once daily for 1 week; assay type: organism-based; conditions: in vivo, 168 h, time 1 weeks
[4] = Toxicity in BALB/c mouse xenografted with human MDA-MB-231 cells assessed as widening of the pulmonary septum and more cellular components at 100 mg/kg once daily for 1 week by H&E staining; assay type: organism-based; conditions: in vivo, 168 h, time 1 weeks

Structure (SMILES) | IC50 (HL-60) | IC50 (U-937) | IC50 (MCF7) | IC50 (MDA-MB-231) | EC50 [1] | Activity [2] | Activity [3] | Activity [4]
CCCCc1oc2ccccc2c1C(=O)c1cc(I)c(OCCCN(C)Cc2ccccc2)c(I)c1 | 8.51 µM | 6.86 µM | 8.02 µM | 54 µM |  |  |  | 
CCCCNC(=O)COc1ccc(C(=O)c2c(CCCC)oc3ccccc23)cc1 | > 50 µM | 22.8 µM | > 50 µM | 34.5 µM | 18.9 µM |  |  | 
CCCCc1oc2ccccc2c1C(=O)c1cc(I)c(OCCCN2CCN(C)CC2)c(I)c1 | > 50 µM | > 50 µM | 5.37 µM | 8.76 µM | 3.46 µM |  |  | 
CCCCc1oc2ccccc2c1C(=O)c1ccc(OCCCC(=O)N[C@H](C)c2ccccc2)cc1 | > 50 µM | 30.7 µM | > 50 µM | > 50 µM |  |  |  | 
CCCCc1oc2ccccc2c1C(=O)c1ccc(OCCCC(=O)N(C)Cc2ccccc2)cc1 | > 50 µM | 10.5 µM | > 50 µM | > 50 µM |  |  |  | 
Oc1ccc(/C=C/c2cc(O)cc(O)c2)cc1 [RESVERATROL] |  |  |  | 98.8 µM | 55.2 µM |  |  | 
CCCCc1oc2ccccc2c1C(=O)c1ccc(OCC(=O)N[C@@H](C)c2ccccc2)cc1 | > 50 µM | 33.8 µM | 17.9 µM | > 50 µM |  |  |  | 
CCCCc1oc2ccccc2c1C(=O)c1cc(I)c(OCCCN2CCCC2)c(I)c1 |  |  |  |  |  | Non-Toxic | Non-Toxic | Non-Toxic
CCCCc1oc2ccccc2c1C(=O)c1cc(Cl)c(OCCCN2CCCC2)c(Cl)c1 | 11.3 µM | 25.2 µM | 27.7 µM | 28.2 µM | 0.81 µM |  |  | 
CCCCc1oc2ccccc2c1C(=O)c1ccc(OCCCN2CCCC2)cc1 | 6.38 µM | 6.82 µM | 3.73 µM | 19.5 µM |  |  |  | 
CCCCc1oc2ccccc2c1C(=O)c1cc(I)c(OCCN(C)C)c(I)c1 | 8.22 µM | 8.68 µM | 39.4 µM | 6.6 µM | 4.69 µM |  |  | 
CCCCc1oc2ccccc2c1C(=O)c1ccc(OCC(=O)NCc2ccccc2)cc1 | > 50 µM | 16.3 µM | 19.6 µM | > 50 µM |  |  |  | 
CCCCc1oc2ccccc2c1C(=O)c1cc(I)c(OCCCC2CCCC2)c(I)c1 | > 50 µM | 42.2 µM | > 50 µM | > 50 µM |  |  |  | 
CCCCc1oc2ccccc2c1C(=O)c1cc(I)c(OCCN2CCCC2)c(I)c1 | 23.2 µM | 31.7 µM | > 50 µM | 20.4 µM | 16.2 µM |  |  | 
CCCCc1oc2ccccc2c1C(=O)c1ccc(OCCCC(=O)N2CCCCC2)cc1 | 31.9 µM | 16.6 µM | 33 µM | 36 µM | 2.38 µM |  |  | 
CCCCc1oc2ccccc2c1C(=O)c1cc(I)c(OCCCNCc2ccccc2)c(I)c1 | 4.4 µM | 2.3 µM | 8.05 µM | 11.6 µM | 10.7 µM |  |  | 
CCCCc1oc2ccccc2c1C(=O)c1cc(I)c(OCCCN(CC)CC)c(I)c1 | 16 µM | 30 µM | 21.5 µM | 26.8 µM | 4.15 µM |  |  | 
CCCCc1oc2ccccc2c1C(=O)c1ccc(OCC(=O)N2CCOCC2)cc1 | > 50 µM | 45.4 µM | 34 µM | > 50 µM | 1.23 µM |  |  | 
CCCCc1oc2ccccc2c1C(=O)c1ccc(OCC(=O)N[C@H](C)c2ccccc2)cc1 | > 50 µM | 19.8 µM | 14.1 µM | 39 µM | 17.4 µM |  |  | 
CCCCc1oc2ccccc2c1C(=O)c1ccc(OCC(=O)Nc2cccc(OC)c2)cc1 | > 50 µM | 24.2 µM | 38.5 µM | > 50 µM |  |  |  | 

Now from value to compound, other results behind:

IC50 (HL-60) | IC50 (U-937) | IC50 (MCF7) | IC50 (MDA-MB-231) | EC50 [1] | Structure (SMILES) | Activity [2] | Activity [3] | Activity [4]
> 50 µM | 41.4 µM | 28.7 µM | 15.7 µM |  | CCCCc1oc2ccccc2c1C(=O)c1cc(I)c(OCCCN2CCN(Cc3ccccc3)CC2)c(I)c1 |  |  | 
2.77 µM | 3.47 µM | 5.26 µM | 19.4 µM |  | CCCCc1oc2ccccc2c1C(=O)c1ccc(OCCN(CC)CC)cc1 |  |  | 
> 50 µM | 24.6 µM | > 50 µM | 38.1 µM | 16.7 µM | CCCCNC(=O)CCCOc1ccc(C(=O)c2c(CCCC)oc3ccccc23)cc1 |  |  | 
> 50 µM | 42.2 µM | > 50 µM | > 50 µM |  | CCCCc1oc2ccccc2c1C(=O)c1ccc(OCC(N)=O)cc1 |  |  | 
> 50 µM | 37.1 µM | > 50 µM | > 50 µM | 2.68 µM | CCCCc1oc2ccccc2c1C(=O)c1ccc(OCC(=O)N2CCCCC2)cc1 |  |  | 
 |  |  |  | 3.25 µM | CCCCc1oc2ccccc2c1C(=O)c1cc(I)c(OCCN(CC)CC)c(I)c1 [AMIODARONE] |  |  | 
 |  |  | 44.9 µM | 0.17 µM | C=CCc1ccc(O)c(-c2ccc(O)c(CC=C)c2)c1 [HONOKIOL] |  |  | 
34 µM | 21.4 µM | 41.2 µM | 31.6 µM | 3.02 µM | CCCCc1oc2ccccc2c1C(=O)c1ccc(OCCCC(=O)N2CCOCC2)cc1 |  |  | 
> 50 µM | 22.4 µM | > 50 µM | > 50 µM | 7.01 µM | CCCCc1oc2ccccc2c1C(=O)c1ccc(OCCCC(=O)N[C@@H](C)c2ccccc2)cc1 |  |  | 
28.9 µM | 15.8 µM | 49.7 µM | > 50 µM |  | CCCCc1oc2ccccc2c1C(=O)c1ccc(OCCCC(=O)NCc2ccccc2)cc1 |  |  | 
11.5 µM | 18.2 µM | 37.9 µM | 15.7 µM | 1.65 µM | CCCCc1oc2ccccc2c1C(=O)c1cc(I)c(OCCCN2CCCCC2)c(I)c1 |  |  | 

From ChEMBL document CHEMBL4837260, “Structure-Guided Design of a Small-Molecule Activator of Sirtuin-3 that Modulates Autophagy in Triple Negative Breast Cancer” (J Med Chem, 2021)
